Laboratory results as given in patent US12115221B2, “Pickering emulsion stabilized by cellulose nanocrystals from ginkgo seed shells and preparation method thereof” (Jiangnan University, priority 2019, dated 2024).

Test: Degradation rate of curcumin on storage
Format: physicochemical
Conditions: storage at room temperature for 7 days
Procedure: Curcumin was dissolved in an oil phase. The CNCs with low aspect ratio obtained in the Example 6 were diluted to 0.3 wt %, and an emulsion was prepared according to the oil-water ratio of 1:9. Subsequently, high-speed shearing was carried out at 10000 rpm for 2 min using high-speed shearing equipment to obtain a coarse emulsion, and then the coarse emulsion was circulated 4 times at 30 MPa using a high-pressure homogenizer to obtain the final Pickering emulsion. Determination of degradation rate of curcumin: a certain volume of emulsion was taken; the emulsion was mixed with ethanol in a ratio of 1:1; the mixture was centrifuged at 11000 rpm for 5 min; the supernatant was collected; and the absorbance at 426 nm was measured. Formula of degradation rate: Degradation rate (100%)=m1/m2×100, wherein m1 is the mass of curcumin after the emulsion is placed, and m2 is the mass of curcumin before the emulsion is placed.

With `COc1cc(/C=C/C(=O)CC(=O)/C=C/c2ccc(O)c(OC)c2)ccc1O` [curcumin in the aqueous solution, Curcumin] the “degradation rate of curcumin” value was 80%.
